One data set concerns the target human O-GlcNAcase (Homo sapiens (Human), UniProt O60502). Briefly: Fluorescence-based assay for KI values for inhibition of O-GlcNAcase activity. The data set is classed as biochemical. The note with it: purified human O-GlcNAcase 0.7 nM, 2 mM 4-methylumbelliferyl GlcNAc substrate, pH 7.0, Cheng-Prusoff; read-out: Fluorescence-based hOGA Ki.
For the next data set, the target named is O-GlcNAcase (Rattus norvegicus (Rat), UniProt Q8VIJ5). As to the kind of experiment: Cell-based ELISA for cellular activity of compounds that inhibit O-GlcNAcase (O-GlcNAcylated protein detected with RL-2 antibody). The note with it: rat PC-12 cells, treated 24 h, O-GlcNAcylated protein by RL-2 ELISA.
Chain of O-GlcNAcase (Q8VIJ5 whole entry): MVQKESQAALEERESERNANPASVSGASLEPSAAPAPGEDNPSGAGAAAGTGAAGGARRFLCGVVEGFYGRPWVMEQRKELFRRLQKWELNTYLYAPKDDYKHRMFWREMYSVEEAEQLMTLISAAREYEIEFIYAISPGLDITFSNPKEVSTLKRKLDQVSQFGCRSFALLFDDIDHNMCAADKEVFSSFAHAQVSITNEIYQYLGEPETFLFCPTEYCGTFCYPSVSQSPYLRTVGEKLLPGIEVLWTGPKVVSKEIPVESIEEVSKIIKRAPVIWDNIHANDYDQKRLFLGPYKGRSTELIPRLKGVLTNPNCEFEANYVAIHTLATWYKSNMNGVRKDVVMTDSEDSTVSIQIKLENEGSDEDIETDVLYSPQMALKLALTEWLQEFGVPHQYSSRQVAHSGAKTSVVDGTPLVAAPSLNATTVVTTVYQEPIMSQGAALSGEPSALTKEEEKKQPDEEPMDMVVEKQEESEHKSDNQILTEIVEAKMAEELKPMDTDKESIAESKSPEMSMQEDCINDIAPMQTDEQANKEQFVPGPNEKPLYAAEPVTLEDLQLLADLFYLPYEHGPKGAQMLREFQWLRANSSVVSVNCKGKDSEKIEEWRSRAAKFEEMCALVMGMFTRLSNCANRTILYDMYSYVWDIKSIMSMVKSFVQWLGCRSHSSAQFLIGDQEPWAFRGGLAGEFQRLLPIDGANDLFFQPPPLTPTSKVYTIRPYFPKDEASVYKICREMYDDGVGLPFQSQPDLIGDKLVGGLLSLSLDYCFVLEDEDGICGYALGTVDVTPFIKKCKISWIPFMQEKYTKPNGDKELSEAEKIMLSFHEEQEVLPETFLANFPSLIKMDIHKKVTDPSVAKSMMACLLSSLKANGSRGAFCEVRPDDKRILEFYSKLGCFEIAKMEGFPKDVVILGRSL
A short description of data set [1]: Apparent permeability (Papp), bi-directional transport in LLC-PK1 cells. Type of data set: in vitro ADME. The note with it: pig, 1 μM test compound, t=3 h, average of A to B and B to A. The method, then:
Assay for Determination of Apparent Permeability (Papp)
Bi-directional transport was evaluated in LLC-PK1 cells in order to determine apparent permeability (Papp). LLC-PK1 cells can form a tight monolayer and therefore can be used to assess vectorial transport of compounds from basolateral to apical (B→A) and from apical to basolateral (A→B).
To determine Papp, LLC-PK1 cells were cultured in 96-well transwell culture plates (Millipore). Solutions containing the test compounds (1 μM) were prepared in Hank's Balanced Salt Solution with 10 mM HEPES. Substrate solution (150 μL) was added to either the apical (A) or the basolateral (B) compartment of the culture plate, and buffer (150 μL) was added to the compartment opposite to that containing the compound. At t=3 h, 50 μL samples were removed from both sides of monolayers dosed with test compound and placed in 96 well plates, scintillant (200 μL) or internal standard (100 μL labetolol 1 μM) was added to the samples and concentration was determined by liquid scintillation counting in a MicroBeta Wallac Trilux scintillation counter (Perkin Elmer Life Sciences, Boston, Mass.) or by LCMS/MS (Applied Biosystems SCIEX API 5000 triple quadruple mass spectrometer). […]
The apparent permeability, Papp, was calculated by the following formula for samples taken at t=3 h:
[formula] […] Papp was expressed as 10^−6 cm/s. […]

Chain of human O-GlcNAcase (O60502 whole entry): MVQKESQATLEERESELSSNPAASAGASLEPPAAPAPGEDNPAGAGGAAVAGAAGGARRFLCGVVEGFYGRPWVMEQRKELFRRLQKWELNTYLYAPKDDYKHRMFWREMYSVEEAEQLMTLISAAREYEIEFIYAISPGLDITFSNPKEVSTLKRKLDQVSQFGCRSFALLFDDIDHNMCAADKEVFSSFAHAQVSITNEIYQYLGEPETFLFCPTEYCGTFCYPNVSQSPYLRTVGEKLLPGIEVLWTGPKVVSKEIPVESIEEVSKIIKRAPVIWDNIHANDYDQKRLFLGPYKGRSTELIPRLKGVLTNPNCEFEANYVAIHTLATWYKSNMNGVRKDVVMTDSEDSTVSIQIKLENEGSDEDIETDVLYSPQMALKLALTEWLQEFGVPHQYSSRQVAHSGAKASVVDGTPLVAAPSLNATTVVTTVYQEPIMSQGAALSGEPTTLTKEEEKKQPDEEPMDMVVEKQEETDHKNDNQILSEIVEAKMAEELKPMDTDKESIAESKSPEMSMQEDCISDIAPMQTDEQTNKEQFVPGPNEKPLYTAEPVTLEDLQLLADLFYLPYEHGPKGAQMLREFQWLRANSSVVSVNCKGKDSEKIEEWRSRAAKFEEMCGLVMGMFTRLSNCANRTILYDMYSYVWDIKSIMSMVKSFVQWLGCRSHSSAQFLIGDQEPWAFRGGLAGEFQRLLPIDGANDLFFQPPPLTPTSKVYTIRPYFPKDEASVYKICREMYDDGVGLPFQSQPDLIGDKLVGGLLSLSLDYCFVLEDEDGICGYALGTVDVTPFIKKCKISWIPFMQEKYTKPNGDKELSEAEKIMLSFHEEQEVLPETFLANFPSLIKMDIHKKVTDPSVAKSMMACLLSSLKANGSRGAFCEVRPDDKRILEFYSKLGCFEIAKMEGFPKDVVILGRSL
Description for human O-GlcNAcase: Assay for Determination of KI Values for Inhibition of O-GlcNAcase Activity
Experimental Procedure for Kinetic Analyses:
Enzymatic reactions were carried out in a reaction containing 50 mM NaH2PO4, 100 mM NaCl and 0.1% BSA (pH 7.0) using 2 mM 4-Methylumbelliferyl N-acetyl-β-D-glucosaminide dihydrate (Sigma M2133) dissolved in ddH2O, as a substrate. The amount of purified human O-GlcNAcase enzyme used in the reaction was 0.7 nM. Test compound of varying concentrations was added to the enzyme prior to initiation of the reaction. The reaction was performed at room temperature in a 96-well plate and was initiated with the addition of substrate. […] The slope of product production was determined for each concentration of compound tested and plotted, using standard curve fitting algorithms for sigmoidal dose response curves. The values for a four parameter logistic curve fit of the data were determined.

`CCNC1=N[C@@H]2[C@@H](O)[C@H](O)[C@@H](CO)S[C@@H]2O1` [Example 1, (3aS,5R,6S,7R,7aR)-2-(ethylamino)-5-(hydroxymethyl)-5,6,7,7a-tetrahydro 3aH-thiopyrano[3,2-d]oxazole-6,7-diol]: at human O-GlcNAcase, the Ki was 3 nM. Regarding `CCNC1=N[C@H]2[C@@H](S1)S[C@H](CO)[C@@H](O)[C@@H]2O` [Example 2, (3aR,5R,6S,7R,7aR)-2-(ethylamino)-5-(hydroxymethyl)-5,6,7,7a-tetrahydro-3aH-thiopyrano[3,2-d]thiazole-6,7-diol], the inhibitory constant (Ki) on human O-GlcNAcase was determined as 3 nM. Besides, on O-GlcNAcase, the EC50 was 139 nM. In data set [1], the Papp at 3 h, 1 μM is 37 nm/s.

In the case of `CCCNC1=N[C@H]2[C@@H](S1)S[C@H](CO)[C@@H](O)[C@@H]2O` [Example 3, (3aR,5R,6S,7R,7aR)-5-(hydroxymethyl)-2-(propylamino)-5,6,7,7a-tetrahydro-3aH-thiopyrano[3,2-d]thiazole-6,7-diol], the inhibition constant (Ki) at human O-GlcNAcase was 1.4 nM. At O-GlcNAcase, this compound yielded an EC50 of 29 nM. Take `CNC1=N[C@H]2[C@@H](S1)S[C@H](CO)[C@@H](O)[C@@H]2O` [Example 4, (3aR,5R,6S,7R,7aR)-5-(hydroxymethyl)-2-(methylamino)-5,6,7,7a-tetrahydro-3aH-thiopyrano[3,2-d]thiazole-6,7-diol]: the Ki on human O-GlcNAcase stood at 0.11 nM. In addition, the EC50 on O-GlcNAcase came to 3 nM. For the compound `CCNC1=N[C@H]2[C@@H](S1)S[C@H](C(F)F)[C@@H](O)[C@@H]2O` [Example 5, (3aR,5S,6S,7R,7aR)-5-(difluoromethyl)-2-(ethylamino)-5,6,7,7a-tetrahydro-3aH-thiopyrano[3,2-d]thiazole-6,7-diol], the Ki on human O-GlcNAcase was 22 nM. In addition, it took 349 nM to reach a half-maximal effect on O-GlcNAcase (EC50). Regarding `CCNC1=N[C@@H]2[C@@H](O)[C@H](O)[C@@H](CO)O[C@@H]2S1` [N/A, (3 aR,5R,6S,7R,7aR)-2-(ethylamino)-5-(hydroxymethyl)-5,6,7,7a-tetrahydro-3aH-pyrano[3,2-d]thiazole-6,7-diol, reference compound], in data set [1], the Papp at 3 h, 1 μM was less than 10 nm/s.

The values are drawn from US9695197B2, “Glycosidase inhibitors and uses thereof” (Alectos Therapeutics Inc., priority 2012, dated 2017).
